Measured values taken from US20060014642A1, “Herbicidal compositions” (Bayer CropScience GmbH, priority 2004, published 2006).

Experiments:
Type in all cases: in vivo
Lolium multiflorum = assay: Outdoor trial, post-emergence herbicidal action against Lolium multiflorum; settings: application at the 2-5-leaf stage (post-emergence), evaluation 55 days after treatment
Experimental: (§1) The herbicidal efficacy of the active compounds or active compound mixtures was scored visually by comparing the treated pots (soil) with untreated controls. The damage and development of all above-ground plant parts was recorded. Scoring was done on a percentage scale (100% action=all plants dead or not emerged; 50% action=50% of the plants and green plant parts dead or not emerged; 0% action=no discernible action=like control plot). The score figures of in any case 4 repetitions (pots) were averaged.
(§2) Seeds or rhizome pieces of monocotyledonous and dicotyledonous weeds are placed in sandy loam in pots, covered with soil and grown in the greenhouse under good growth conditions (temperature, atmospheric humidity, water supply). Three weeks after sowing, the test plants are treated in the three-leaf stage with the compositions according to the invention. The compositions according to the invention, formulated as wettable powders or emulsion concentrates, are sprayed onto the green plant parts in various dosages using an application rate of 300 to 800 l of water/ha (converted). After the test plants have remained in the greenhouse under optimum growth conditions for about 3 to 4 weeks, the effect of the preparations is scored visually in comparison with untreated controls (scoring as in Example 1). The compositions according to the invention also have good herbicidal post-emergence action against a broad spectrum of economically important weed grasses and broad-leaf weeds.
Corresponding to the greenhouse experiments of sections 1 and 2, the tests were carried out in the open on plots. Scoring was carried out analogously to the tests in sections 1 and 2.
Certain combinations were tested for their herbicidal activity in accordance to the general example in section 3 in combination with section 2 (post-emergence method).

Festuca rubra = assay: Outdoor trial, post-emergence herbicidal action against Festuca rubra
Experimental: as §1
as §2, with “The compositions according to the invention also have good herbicidal post-emergence action against a broad spectrum of economically important weed grasses and broad-leaf weeds.” left out

Poa trivialis = assay: Outdoor trial, post-emergence herbicidal action against Poa trivialis
Experimental: as §1
as §2, with “The compositions according to the invention also have good herbicidal post-emergence action against a broad spectrum of economically important weed grasses and broad-leaf weeds.” left out

[1] = 600 g of AS/ha, application at stage 21, evaluation 35 days after treatment
[2] = 200 g of AS/ha, application at stage 21 of the harmful plants, evaluation 35 days after treatment

## O=C(O)CNCP(=O)(O)O [(B2.1.2.1), N-(phosphonomethyl)glycine, reference compound]
Lolium multiflorum; 1080 g of AS/ha
  Herbicidal action [%] against Lolium multiflorum: 18%

## CP(=O)(O)CCC(N)C(=O)O (racemic) [(B2.1.1.1), 4-[hydroxy(methyl)phosphinoyl]-DL-homoalanine, reference compound]
Festuca rubra; [1]
  Herbicidal action [%] against Festuca rubra: 87%
Poa trivialis; [1]
  Herbicidal action [%] against Poa trivialis: 88%

## Cc1ccc2c(c1)[C@H](Nc1nc(N)nc([C@@H](C)F)n1)CC2 [(A11), 2-amino-4-[(1R)-6-methylindan-1-ylamino]-6-[(1R)-1-fluoroethyl]-1,3,5-triazine]
Lolium multiflorum; 200 g of AS/ha
  Herbicidal action [%] against Lolium multiflorum: 20%
Lolium multiflorum; 300 g of AS/ha
  Herbicidal action [%] against Lolium multiflorum: 50%
Festuca rubra; [2]
  Herbicidal action [%] against Festuca rubra: 0%
Poa trivialis; [2]
  Herbicidal action [%] against Poa trivialis: 0%
